The text below walks through data of patent US9050346B2, “Bromodomain inhibitors” (AbbVie Inc., priority 2013, dated 2015).

One test has as its target T1, BRD4 (BDI_K57-E168) (Homo sapiens, UniProt O60885).
T1 construct: BD1: amino acids K57-E168; made in house
Description: TR-FRET bromodomain binding assay, BRD4 first bromodomain. As to conditions: His-tagged BD1, 100 nM Alexa647 probe; Ki calculated from IC50; dilution protocol A-G. An outline of the steps: (§1)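 His-tagged BRD4 BD1 (K57-E168) or BD2 (8 nM) with Eu-anti-His antibody and Alexa647-labeled BET-inhibitor probe (100 nM for BDI, 30 nM for BDII), pH 6.0 phosphate buffer, 2% DMSO, 1 h at room temperature. TR-FRET (Ex 340, Em 495/520); IC50 by 4-parameter fit, converted to Ki using probe Kd and concentration.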

Another test concerns the target T2, BRD4 (BDII_E352-M457) (Homo sapiens, UniProt O60885).
T2 construct: made in house
Description: TR-FRET bromodomain binding assay, BRD4 second bromodomain. An outline of the steps: as §1
On the technique in general: Time-resolved FRET reads energy transfer from a long-lived donor to a nearby acceptor.

The test system of test [1] is breast cancer cell line MX-1. The experiment in a line: MX-1 cell line proliferation assay (3-day, Cell Titer Glo). Format: cell-based. As to conditions: Homo sapiens, MX1, MX-1 cells, 72 h, top concentration 3 μM, read-out: Cellular proliferation: EC50. An outline of the steps:
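MX-1 cells, 5000/well in RPMI 1640 with 10% FBS, adhered overnight, then treated 3 days with compound at final 3 to 0.0001 μM (3-fold steps). Cell Titer Glo luminescence normalized to DMSO-treated cells; EC50 from sigmoidal fit.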
A general note: Cellular ATP, detected with luciferase, serves as a proxy for viable cell number.

As for `Cc1[nH]c(-c2cc(CO)ccc2Oc2ccc(F)cc2F)c2c1C(=O)NCC2` [Example 103, 1-[2-(2,4-difluorophenoxy)-5-(hydroxymethyl)phenyl]-3-methyl-2,5,6,7-tetrahydro-4H-pyrrolo[3,4-c]pyridin-4-one], the inhibition constant Ki (commonly the dissociation constant of the complex between target and ligand, obtained from inhibition or displacement) is 122 nM on BRD4 (BDI_K57-E168) and 198 nM at BRD4 (BDII_E352-M457). In test [1], the EC50 was 239 nM.

As for `CCS(=O)(=O)c1ccc(NCC2CC2)c(-c2[nH]c(C)c3c(=O)[nH]ncc23)c1` [Example 84, 5-{2-[(cyclopropylmethyl)amino]-5-(ethylsulfonyl)phenyl}-7-methyl-2,6-dihydro-1H-pyrrolo[3,4-d]pyridazin-1-one], the values for the Ki at BRD4 (BDI_K57-E168) and on BRD4 (BDII_E352-M457) were 15.6 nM and 112 nM, respectively. The EC50 in test [1] is 288 nM.

Regarding `CO[C@H]1C[C@H](NC(=O)c2cc3c(-c4ccccc4Oc4ccccc4)[nH]c(C)c3c(=O)[nH]2)C1` [Example 50, N-(trans-3-methoxycyclobutyl)-3-methyl-4-oxo-1-(2-phenoxyphenyl)-4,5-dihydro-2H-pyrrolo[3,4-c]pyridine-6-carboxamide], the inhibition constant (Ki) at BRD4 (BDI_K57-E168) is 30.1 nM; on BRD4 (BDII_E352-M457), 11.3 nM. For the same compound, in test [1], the EC50 stood at 210 nM.

On to `CCOC(=O)c1nc2c(-c3ccccc3Oc3ccccc3)[nH]c(C)c2c(=O)[nH]1` [Example 87, ethyl 5-methyl-4-oxo-7-(2-phenoxyphenyl)-4,6-dihydro-3H-pyrrolo[3,4-d]pyrimidine-2-carboxylate], for which the Ki at BRD4 (BDI_K57-E168) is 82.3 nM; at BRD4 (BDII_E352-M457), 1180 nM. Besides, the EC50 in test [1] is above 3000 nM.

For `CCS(=O)(=O)Nc1ccc(Oc2ccccc2)c(-c2[nH]c(C)c3c(=O)[nH]ncc23)c1` [Example 75, N-[3-(7-methyl-1-oxo-2,6-dihydro-1H-pyrrolo[3,4-d]pyridazin-5-yl)-4-phenoxyphenyl]ethanesulfonamide], the Ki at BRD4 (BDI_K57-E168) was 3.66 nM; on BRD4 (BDII_E352-M457), 9.47 nM. Moreover, the EC50 in test [1] was determined as 51.8 nM.

On to `Cc1[nH]c(-c2ccccc2Oc2ccccc2)c2cc(C(=O)N[C@@H]3CCN(C)C3)[nH]c(=O)c12` [Example 51, (R)-3-methyl-N-(1-methylpyrrolidin-3-yl)-4-oxo-1-(2-phenoxyphenyl)-4,5-dihydro-2H-pyrrolo[3,4-c]pyridine-6-carboxamide], for which the Ki on BRD4 (BDI_K57-E168) was 6.13 nM; at BRD4 (BDII_E352-M457) it was 190 nM. In addition, the EC50 in test [1] is 117 nM.

For the compound `Cc1[nH]c(-c2ccccc2Oc2ccccc2)c2cc(C(=O)Nc3ccncc3)[nH]c(=O)c12` [Example 28, 3-methyl-4-oxo-1-(2-phenoxyphenyl)-N-(pyridin-4-yl)-4,5-dihydro-2H-pyrrolo[3,4-c]pyridine-6-carboxamide], the Ki is 42.7 nM on BRD4 (BDI_K57-E168) and 16.8 nM at BRD4 (BDII_E352-M457). Also, the EC50 in test [1] is 515 nM.

As for `Cc1[nH]c(-c2ccccc2Oc2ccccc2)c2cc(C(=O)NC3CCOC3)[nH]c(=O)c12` (stereo not drawn) [Example 37, 3-methyl-4-oxo-1-(2-phenoxyphenyl)-N-(tetrahydrofuran-3-yl)-4,5-dihydro-2H-pyrrolo[3,4-c]pyridine-6-carboxamide], the Ki is 10.1 nM on BRD4 (BDI_K57-E168) and 13.9 nM at BRD4 (BDII_E352-M457). Moreover, the EC50 in test [1] came to 161 nM.

In the case of `Cc1[nH]c(-c2ccccc2Oc2ccccc2)c2cc(C(=O)NC3CCOCC3)[nH]c(=O)c12` [Example 38, 3-methyl-4-oxo-1-(2-phenoxyphenyl)-N-(tetrahydro-2H-pyran-4-yl)-4,5-dihydro-2H-pyrrolo[3,4-c]pyridine-6-carboxamide], the inhibition constant Ki on BRD4 (BDI_K57-E168) was 16.6 nM; on BRD4 (BDII_E352-M457) it was 29 nM. In addition, the EC50 in test [1] was determined as 300 nM.

On to `Cc1[nH]c(-c2ccccc2Oc2ccccc2)c2cc(C(=O)NCCN3CCOCC3)[nH]c(=O)c12` [Example 27, 3-methyl-N-(2-morpholinoethyl)-4-oxo-1-(2-phenoxyphenyl)-4,5-dihydro-2H-pyrrolo[3,4-c]pyridine-6-carboxamide], for which the Ki at BRD4 (BDI_K57-E168) was 3.81 nM; at BRD4 (BDII_E352-M457), 47 nM. In addition, in test [1], the EC50 came out at 98.9 nM.

For the compound `CNC(=O)c1cc2c(-c3cc(C(F)(F)F)ccc3Oc3ccc(F)cc3F)[nH]c(C)c2c(=O)[nH]1` [Example 34, 1-[2-(2,4-difluorophenoxy)-5-(trifluoromethyl)phenyl]-N,3-dimethyl-4-oxo-4,5-dihydro-2H-pyrrolo[3,4-c]pyridine-6-carboxamide], the inhibitory constant (Ki) was 77 nM at BRD4 (BDI_K57-E168) and 160 nM on BRD4 (BDII_E352-M457). The EC50 in test [1] was determined as 355 nM.

As for `Cc1nc2c(-c3ccccc3Oc3ccccc3)[nH]c(C)c2c(=O)[nH]1` [Example 89, 2,5-dimethyl-7-(2-phenoxyphenyl)-3,6-dihydro-4H-pyrrolo[3,4-d]pyrimidin-4-one], the values for the inhibition constant (Ki) at BRD4 (BDI_K57-E168) and at BRD4 (BDII_E352-M457) were 212 nM and 497 nM, respectively. Moreover, the EC50 in test [1] is 963 nM.

As to `CCS(=O)(=O)Nc1ccc(Oc2ccccc2)c(-c2[nH]c(C)c3c(=O)[nH]c(C(=O)OC)cc23)c1` [Example 7, methyl 1-(5-(ethylsulfonamido)-2-phenoxyphenyl)-3-methyl-4-oxo-4,5-dihydro-2H-pyrrolo[3,4-c]pyridine-6-carboxylate], the inhibition constant Ki was 2.15 nM on BRD4 (BDI_K57-E168) and 15.9 nM on BRD4 (BDII_E352-M457). Also, the EC50 in test [1] is 25.7 nM.

In the case of `Cc1[nH]c(-c2ccccc2Oc2ccccc2)c2cc(C(=O)Nc3ccc(CN4CCN(C)CC4)cc3)[nH]c(=O)c12` [Example 17, 3-methyl-N-(4-((4-methylpiperazin-1-yl)methyl)phenyl)-4-oxo-1-(2-phenoxyphenyl)-4,5-dihydro-2H-pyrrolo[3,4-c]pyridine-6-carboxamide], the figures for the Ki at BRD4 (BDI_K57-E168) and at BRD4 (BDII_E352-M457) were 27.7 nM and 2.29 nM, respectively. In test [1], the EC50 stood at 177 nM.

For the compound `Cc1[nH]c(-c2cc(S(C)(=O)=O)ccc2OCC2CC2)c2c1C(=O)NCC2` [Example 96, 1-[2-(cyclopropylmethoxy)-5-(methylsulfonyl)phenyl]-3-methyl-2,5,6,7-tetrahydro-4H-pyrrolo[3,4-c]pyridin-4-one], the figures for the Ki on BRD4 (BDI_K57-E168) and at BRD4 (BDII_E352-M457) were 34.3 nM and 461 nM, respectively. Also, the EC50 in test [1] stood at 407 nM.

With `Cc1[nH]c(-c2ccccc2Oc2ccccc2)c2cc(C(=O)NC[C@H]3CCNC3)[nH]c(=O)c12` [Example 58, (S)-3-methyl-4-oxo-1-(2-phenoxyphenyl)-N-(pyrrolidin-3-ylmethyl)-4,5-dihydro-2H-pyrrolo[3,4-c]pyridine-6-carboxamide], the values for the Ki on BRD4 (BDI_K57-E168) and at BRD4 (BDII_E352-M457) were 2.02 nM and 16 nM, respectively. Besides, the EC50 in test [1] came out at 329 nM.

In the case of `Cc1[nH]c(-c2ccccc2Oc2ccccc2)c2cc(C(=O)NC3CCN(C)CC3)[nH]c(=O)c12` [Example 35, 3-methyl-N-(1-methylpiperidin-4-yl)-4-oxo-1-(2-phenoxyphenyl)-4,5-dihydro-2H-pyrrolo[3,4-c]pyridine-6-carboxamide], the Ki is 5.21 nM at BRD4 (BDI_K57-E168) and 48.5 nM at BRD4 (BDII_E352-M457). Also, in test [1], the EC50 was determined as 53.6 nM.

`Cc1[nH]c(-c2ccccc2Oc2ccccc2)c2cc(C(=O)NC(C)(C)C#N)[nH]c(=O)c12` [Example 52, N-(2-cyanopropan-2-yl)-3-methyl-4-oxo-1-(2-phenoxyphenyl)-4,5-dihydro-2H-pyrrolo[3,4-c]pyridine-6-carboxamide]: the Ki was 36.9 nM at BRD4 (BDI_K57-E168) and 97.5 nM at BRD4 (BDII_E352-M457). In addition, the EC50 in test [1] stood at 763 nM.

As for `Cc1[nH]c(-c2ccccc2Oc2ccccc2)c2cc(C(=O)NCC3CNCC3(F)F)[nH]c(=O)c12` (stereo not drawn) [Example 59, N-[(4,4-difluoropyrrolidin-3-yl)methyl]-3-methyl-4-oxo-1-(2-phenoxyphenyl)-4,5-dihydro-2H-pyrrolo[3,4-c]pyridine-6-carboxamide], the Ki at BRD4 (BDI_K57-E168) is 3.67 nM; at BRD4 (BDII_E352-M457), 59.7 nM. In addition, the EC50 in test [1] is 223 nM.

Regarding `CCOC(=O)c1cc2c(-c3cc(F)ccc3OC3CCCCC3)[nH]c(C)c2c(=O)[nH]1` [Example 48, ethyl 1-[2-(cyclohexyloxy)-5-fluorophenyl]-3-methyl-4-oxo-4,5-dihydro-2H-pyrrolo[3,4-c]pyridine-6-carboxylate], the inhibition constant Ki at BRD4 (BDI_K57-E168) is 5.05 nM; at BRD4 (BDII_E352-M457), 96.4 nM. In test [1], the EC50 was 139 nM.

With `Cc1[nH]c(-c2cc(N)ccc2Oc2ccc(F)cc2F)c2cn[nH]c(=O)c12` [Example 78, 5-[5-amino-2-(2,4-difluorophenoxy)phenyl]-7-methyl-2,6-dihydro-1H-pyrrolo[3,4-d]pyridazin-1-one], the inhibition constant (Ki) is 3.31 nM on BRD4 (BDI_K57-E168) and 34.1 nM on BRD4 (BDII_E352-M457). Moreover, in test [1], the EC50 was 60.5 nM.

For `Cc1noc(-c2cc3c(-c4ccccc4Oc4ccccc4)[nH]c(C)c3c(=O)[nH]2)n1` [Example 61, 3-methyl-6-(3-methyl-1,2,4-oxadiazol-5-yl)-1-(2-phenoxyphenyl)-2H-pyrrolo[3,4-c]pyridin-4(5H)-one], the results for the inhibition constant (Ki) at BRD4 (BDI_K57-E168) and on BRD4 (BDII_E352-M457) were 10 nM and 138 nM, respectively. Moreover, the EC50 in test [1] was 159 nM.

For `Cc1[nH]c(-c2ccccc2Oc2ccccc2)c2cc(C(=O)NC3CN(C)C3)[nH]c(=O)c12` [Example 49, 3-methyl-N-(1-methylazetidin-3-yl)-4-oxo-1-(2-phenoxyphenyl)-4,5-dihydro-2H-pyrrolo[3,4-c]pyridine-6-carboxamide], the inhibition constant (Ki) on BRD4 (BDI_K57-E168) was 3.43 nM; at BRD4 (BDII_E352-M457), 70.2 nM. In test [1], the EC50 was 138 nM.

For `COC(=O)C1Cc2c(-c3ccccc3Oc3ccccc3)[nH]c(C)c2C(=O)N1` (stereo not drawn) [Example 97, methyl 3-methyl-4-oxo-1-(2-phenoxyphenyl)-4,5,6,7-tetrahydro-2H-pyrrolo[3,4-c]pyridine-6-carboxylate], the Ki at BRD4 (BDI_K57-E168) was 24.3 nM; at BRD4 (BDII_E352-M457) it was 157 nM. Besides, the EC50 in test [1] was above 3000 nM.
